In series [1] the test system is human erythrocytes (red blood cells). The series can be described thus: Hemolysis assay of human erythrocytes (EH90). Format: cell-based. The protocol:
(§1) With efficient access to this novel AmB chemotype, ureas AmBAU, AmBMU, and AmBCU were compared to AmB and a range of previously reported AmB derivatives in an in vitro antifungal and human cell toxicity screen. Yeast toxicity was measured with broth microdilution assays (MIC) against Saccharomyces cerevisiae. Human cell toxicity was studied by determining the amount of compound required to cause 90% hemolysis of human erythrocytes (EH90). […] Methyl esterification (AmBME) retains antifungal activity at 0.25 μM against S. cerevisiae, while decreasing hemolysis concentration to one third that seen with AmB. […] Hemolysis activity remained similar to AmBME and C41MeAmB. Bis-amino alkylated amide derivative AmBNR2 was previously shown to moderately improve the therapeutic index.
(§2) Each derivative proposed herein is tested for biological activity against both yeast and human cells to determine its therapeutic index. A broth microdilution experiment determines the MIC (minimum inhibitory concentration) of each derivative against S. cerevisiae and the clinically relevant C. albicans, thereby establishing the antifungal activity of each novel derivative. To test for toxicity against human cells, each compound is exposed to a hemolysis assay against red blood cells which determines the concentration required to cause 90% lysis of human red blood cells (EH90). Additionally, each compound is exposed to human primary renal tubule cells to determine the toxicity of each compound against kidney cells. These assays when compared against the known values of AmB against the same cell lines determine the improvement in therapeutic index of each compound.

For the next series, the system named is Saccharomyces cerevisiae. The series can be described thus: Broth microdilution assay (MIC) against Saccharomyces cerevisiae. The following applies: for MIC: broth microdilution, read-out: MIC S. cerevisiae. It is filed as cell-based. The protocol: as §1, §2
In general terms: In broth dilution the organism is exposed to a series of concentrations in liquid medium.

For series [2] the following is noted: Wilcock et al., J Am Chem Soc 135:8488 (2013); cited from earlier work.
The conditions of series [3]: Wilcock et al., J Am Chem Soc 135:8488 (2013); cited from earlier work. This is another data set of the same source.
The test system of the next series is human cells. Particulars: in vitro studies, previously reported; cited from earlier work.
The subject of a further series is yeast. Particulars: in vitro studies, previously reported; cited from earlier work.
The nature of series [4]: Acute toxicity, single intravenous administration to healthy mice, lethality. It is filed as in vivo. Particulars: single intravenous 4 mg/kg. The protocol:
FIG. 6 is a graph depicting lethality in healthy mice of single intravenous administration in the doses indicated of AmB, AmBMU, or AmBAU.
In a separate set of experiments, acute toxicity was evaluated by single intravenous administration of 1, 2, 4, 8, 16, 32, or 64 mg/kg AmB or its derivatives to healthy mice, followed by monitoring for lethality. […] AmBAU was drastically less toxic with >50% lethality not being reached until the 64 mg/kg dosage group.

A further series deals with Candida albicans. The series can be described thus: Broth microdilution MIC against C. albicans. Format: cell-based. The protocol: Urea derivatives AmBAU, AmBMU, and AmBCU maintain potent antifungal activity ranging from 0.125 μM to 3 μM against S. cerevisiae. […] AmBCU required 324 μM to cause 90% hemolysis in red blood cells, more than 30× required by AmB. Encouraged by this initial therapeutic index screen the urea series was further tested against the clinically relevant fungal cell line Candida albicans. C. albicans is the most common human fungal infection. AmB inhibits yeast grown of C. albicans at 0.25 μM. Similar to the trend seen with S. cerevisiae, the potency of the urea derivatives increased with increasing amount of cationic character. AmBAU, AmBMU, and AmBCU require 0.25, 0.5, and 1 μM respectively (Table 2).
Each derivative proposed herein is tested for biological activity against both yeast and human cells to determine its therapeutic index. A broth microdilution experiment determines the MIC (minimum inhibitory concentration) of each derivative against S. cerevisiae and the clinically relevant C. albicans, thereby establishing the antifungal activity of each novel derivative. To test for toxicity against human cells, each compound is exposed to a hemolysis assay against red blood cells which determines the concentration required to cause 90% lysis of human red blood cells (EH90). […]

For orientation: MIC means the smallest concentration in the dilution series that meets the test's criterion for growth inhibition.

≈ marks a conversion by molar mass, not a printed value. Where two headings read alike, the source gives them in different places. Where only a bound is given, the exact number is not on record here.

As for `CC(C)/C=C/[C@@H](CC1O[C@](O)(C[C@@H](O)C(C)C)C[C@H](O)[C@H]1C(=O)NCCN)OC1OC(C)C(O)C(N)C1O` (stereo partly shown) [AmBAA], the “EH90 red blood cells” value in series [1] (human) was 33.96 ± 8.85 µM. For the same molecule, in the series with Saccharomyces cerevisiae (Saccharomyces cerevisiae), the MIC was determined as 0.03 µM (≈ 0.0164 µg/mL).

Regarding `COC(=O)[C@H]1C(C[C@H](/C=C/C(C)C)OC2OC(C)C(O)C(N)C2O)O[C@](O)(C[C@@H](O)C(C)C)C[C@@H]1O` (stereo partly shown) [AmBME], the “hemolysis concentration relative to that seen with AmB” value in series [1] is reported as “one third”. The “EH90 red blood cells” value in series [1] (human) was found to be 30.67 ± 5.38 µM. For the same molecule, the MIC in the series on Saccharomyces cerevisiae (Saccharomyces cerevisiae) stood at 0.25 µM (≈ 0.13 µg/mL).

In the case of `CC(C)/C=C/[C@@H](CC1O[C@](O)(C[C@@H](O)C(C)C)C[C@H](O)[C@H]1C(=O)NCCn1cncn1)OC1OC(C)C(O)C(N(CCCN)CCCN)C1O` (stereo partly shown) [AmBNR2], in the series on Saccharomyces cerevisiae (Saccharomyces cerevisiae), the MIC was 0.25 µM (≈ 0.178 µg/mL).

For `CC(C)/C=C/[C@H](O)CC1O[C@](O)(C[C@@H](O)C(C)C)C[C@H](O)[C@H]1C(=O)O` (stereo partly shown) [AmdeB], the “cell-killing activity in human cell assay” value in series [1] is “completely abolishes cell-killing activity”. For the same molecule, the “EH90 red blood cells” value in series [1] (human) is above 500 µM. The minimum inhibitory concentration (MIC) in the series on Saccharomyces cerevisiae (Saccharomyces cerevisiae) was above 500 µM. Besides, the “cell-killing activity in yeast assay” value with Saccharomyces cerevisiae (in words) is recorded as “completely abolishes cell-killing activity”.

With `CC1C=CC=CC=CC=CC=CC=CC=CC(OC2CC(N)C(O)C(C)O2)CC2OC(O)(CC(O)CC(O)C(O)CCC(O)CC(O)CC(=O)OC(C)C(C)C1O)CC(O)C2C(=O)O` (stereo not shown) [C2′deOAmB], in series [2], the ergosterol-binding ability entry is given as “retains ergosterol-binding ability”. Besides, the binding to cholesterol entry in series [3] is listed as “shows no binding to cholesterol”. Also, in the series on human cells, the “toxicity to human cells” value was “not human cells”. Moreover, the toxicity to yeast entry with yeast is “toxic to yeast”.

With amphotericin B [AmB], the lethality result in series [4] is “died within seconds”. Moreover, the “MIC C. albicans” value in the series with Candida albicans came out at 0.25 µM. The “EH90 red blood cells” value was determined as 10.37 ± 1.17 µM in series [1] (amount of compound required to cause 90% hemolysis of human erythrocytes) and 10.4 µM in series [1] (amount of compound required to cause 90% hemolysis of human erythrocytes, listed as Amphotericin B). The minimal inhibitory concentration (MIC) in the series with Saccharomyces cerevisiae worked out at 0.5 µM.

The record behind these values is patent US20180273571A1, “CONCISE SYNTHESIS OF UREA DERIVATIVES OF AMPHOTERICIN B” (THE BOARD OF TRUSTEES OF THE UNIVERSITY OF ILLINOIS, priority 2015, published 2018).
